# Reference: US8591878B2, “Therapeutic compounds” (Merck Sharp & Dohme Corp., priority 2008, dated 2013)
# Test system: subgenomic HCV replicon in Huh-7 cells
# Assay: Cell-Based HCV Replication Assay (replicon, NS3 Cell-ELISA)
# Design: species or system hepatitis C virus (HCV)
# Details: Hepatitis C virus, Huh-7, 96 h, read-out: Cell based HCV Replication Assay-IC50
# Source text: Another suitable assay is the cellular Replicon or rheplisa assay described as follows:
# Cell-Based HCV Replication Assay
# Cell clones that stably maintain subgenomic HCV replicon were obtained by transfecting Huh-7 cells with an RNA replicon identical to I377neo/NS3-3′/wt described by V. Lohmann et al., 285 SCIENCE 110 (Jul. 2, 1999) (EMBL-GENBANK No. AJ242652), followed by selection with neomycin sulfate (G418). Viral replication was monitored by measuring the expression of the NS3 protein by an ELISA assay performed directly on cells grown in 96-well microtiter plates (Cell-ELISA) using the anti-NS3 monoclonal antibody 10E5/24 (as described in International Patent Application Publication WO 02/59321). Cells were seeded into 96 well plates at a density of 10^4 cells per well in a final volume of 0.1 ml of DMEM/10% FCS. Two hours after plating, 50 μl of DMEM/10% FCS containing a 3× concentration of inhibitor were added, cells were incubated for 96 hours and then fixed for 10 minutes with ice-cold isopropanol. Each condition was tested in duplicate and average absorbance values were used for calculations. The cells were washed twice with PBS, blocked with 5% non-fat dry milk in PBS+0.1% TRITON X-100+0.02% SDS (PBSTS) and then incubated o/n at 4° C. with the 10E5/24 mab diluted in Milk/PBSTS. After washing 5 times with PBSTS, the cells were incubated for 3 hours at room temperature with Fe-specific anti-mouse IgG conjugated to alkaline phosphatase (Sigma), diluted in Milk/PBSTS. After washing again as above, the reaction was developed with p-nitrophenyl phosphate disodium substrate (Sigma) and the absorbance at 405/620 nm read at intervals. For calculations, we used data sets where samples incubated without inhibitors had absorbance values comprised between 1 and 1.5. The inhibitor concentration that reduced by 50% the expression of NS3 (IC50) was calculated by fitting the data to the Hill equation, Fraction inhibition=1−(Ai−b)/(A0−b)=[I]^n/([I]+IC50) where: • Ai=absorbance value of HBI10 cells supplemented with the indicated inhibitor concentration. • A0=absorbance value of HBI10 cells incubated without inhibitor. • b=absorbance value of Huh-7 cells plated at the same density in the same microtiter plates and incubated without inhibitor. • n=Hill coefficient.
row,SMILES,IC50
1,"C=C[C@@H]1C[C@]1(NC(=O)[C@@H]1C[C@@H]2CN1C(=O)[C@H](C(C)(C)C)NC(=O)N1CCC[C@H]1CCCCc1cccc3c1CN(C3)C(=O)O2)C(=O)NS(=O)(=O)C1CC1 [Example 5, (1R,16R,23S,26S)-23-tert-butyl-N-((1R,2S)-1-{[(cyclopropylsulfonyl)amino]carbonyl}-2-vinylcyclopropyl)-3,21,24-trioxo-2-oxa-4,20,22,25-tetraazapentacyclo [23.2.1.1^4,7.0^6,11.0^16,20] nonacosa-6,8,10-triene-26-carboxamide]",170 nM
2,"C=C[C@@H]1C[C@]1(NC(=O)[C@@H]1C[C@@H]2CN1C(=O)[C@H](C1CCCCC1)NC(=O)N1CCC[C@@H](CCCCc3cc4c(cc(-c5ccccc5)nc4cc3OC)O2)C1)C(=O)NS(=O)(=O)C1CC1 [Example 7, (3R,5S,8S,15R)-8-cyclohexyl-N-((1R,2S)-1-{[(cyclopropylsulfonyl)amino]carbonyl}-2-vinylcyclopropyl)-21-methoxy-7,10-dioxo-25-phenyl-2-oxa-6,9,11,24-tetraazapentacyclo [18.6.2.1^3,6.1^11,15.0^23,27] triaconta-1(27),20,22,23,25,27-hexaene-5-carboxamide]",8 nM
3,"C=C[C@@H]1C[C@]1(NC(=O)[C@@H]1C[C@@H]2CN1C(=O)[C@H](C1CCCCC1)NC(=O)N1CCC[C@H](C1)OCCCc1cc3c(nccc3cc1OC)O2)C(=O)NS(=O)(=O)C1CC1 [Example 11, (3R,5S,8S,15R)-8-cyclohexyl-N-((1R,2S)-1-{[(cyclopropylsulfonyl)amino]carbonyl}-2-vinylcyclopropyl)-21-methoxy-7,10-dioxo-2,16-dioxa-6,9,11,26-tetraazapentacyclo [18.6.2.1^3,6.1^11,15.0^23,27] triaconta-1(26),20,22,24,27-pentaene-5-carboxamide]",6 nM

# Same assay, conditions: Hepatitis C virus; Huh-7 cells with subgenomic HCV replicon; NS3 expression by Cell-ELISA; 96 hours incubation; read-out: Cell based HCV Replication Assay-IC50
row,SMILES,IC50
1,"C=C[C@@H]1C[C@]1(NC(=O)[C@@H]1CC2CN1C(=O)[C@H](C1CCCC1)NC(=O)N1CCCC(C1)OC/C=C/Cn1cc(C)c3c4ccccc4nc(c31)O2)C(=O)NS(=O)(=O)C1CC1 (stereo in doubt) [Example 15, (3S,5S,8S,18E)-8-cyclopentyl-N-((1R,2S)-1-{[(cyclopropylsulfonyl)amino]carbonyl}-2-vinylcyclopropyl)-23-methyl-7,10-dioxo-2,16-dioxa-6,9,11,21,31-pentaazahexacyclo [19.10.1.1^3,6.1^11,15.0^24,32.0^25,30] tetratriaconta-1(31),18,22,24(32),25,27,29-heptaene-5-carboxamide]",5 nM
2,"C=CC1C[C@]1(NC(=O)[C@@H]1C[C@@H]2CN1C(=O)[C@H](C1CCCCC1)NC(=O)N1CCC(CC1)OCCC/C=C/c1cc3c(cc(OCC)nc3cc1OC)O2)C(=O)NS(=O)(=O)C1CC1 (stereo in doubt) [Example 32, (3R,5S,8S,19E)-8-cyclohexyl-N-((1R,2R)-1-{[(cyclopropylsulfonyl)amino]carbonyl}-2-vinylcyclopropyl)-26-ethoxy-22-methoxy-7,10-dioxo-2,15-dioxa-6,9,11,25-tetraazapentacyclo [19.6.2.2^11,14.1^3,6.0^24,28] dotriaconta-1(27),19,21,23,25,28-hexaene-5-carboxamide]",10 nM
3,"C=CC1C[C@]1(NC(=O)[C@@H]1C[C@@H]2CN1C(=O)[C@H](C1CCCCC1)NC(=O)N1CCC(CC1)OCCCCCc1cc3c(cc(OCC)nc3cc1OC)O2)C(=O)NS(=O)(=O)C1CC1 (stereo in doubt) [Example 34, (3R,5S,8S)-8-cyclohexyl-N-((1R,2R)-1-{[(cyclopropylsulfonyl)amino]carbonyl}-2-vinylcyclopropyl)-26-ethoxy-22-methoxy-7,10-dioxo-2,15-dioxa-6,9,11,25-tetraazapentacyclo [19.6.2.2^11,14.1^3,6.0^24,28] dotriaconta-1(27),21,23,25,28-pentaene-5-carboxamide]",7 nM
4,"C=C[C@@H]1C[C@]1(NC(=O)[C@@H]1C[C@@H]2CN1C(=O)[C@H](C(C)(C)C)NC(=O)N1CCC[C@@H]1CC/C=C/c1cccc3c1CN(C3)C(=O)O2)C(=O)NS(=O)(=O)C1CC1 [Example 3, (1R,12E,16S,23S,26S)-23-tert-butyl-N-((1R,2S)-1-{[(cyclopropylsulfonyl)amino]carbonyl}-2-vinylcyclopropyl)-3,21,24-trioxo-2-oxa-4,20,22,25-tetraazapentacyclo [23.2.1.1^4,7.0^6,11.0^16,20] nonacosa-6,8,10,12-tetraene-26-carboxamide]",16 nM
5,"C=C[C@@H]1C[C@]1(NC(=O)[C@@H]1C[C@@H]2CN1C(=O)[C@H](C(C)(C)C)NC(=O)N1CCC[C@H]1CC/C=C/c1cccc3c1CN(C3)C(=O)O2)C(=O)NS(=O)(=O)C1CC1 [Example 4, (1R,12E,16R,23S,26S)-23-tert-butyl-N-((1R,2S)-1-{[(cyclopropylsulfonyl)amino]carbonyl}-2-vinylcyclopropyl)-3,21,24-trioxo-2-oxa-4,20,22,25-tetraazapentacyclo [23.2.1.1^4,7.0^6,11.0^16,20] nonacosa-6,8,10,12-tetraene-26-carboxamide]",260 nM
6,"C=C[C@@H]1C[C@]1(NC(=O)[C@@H]1C[C@@H]2CN1C(=O)[C@H](C1CCCCC1)NC(=O)N1CCC[C@H](CCCCc3cc4c(cc(-c5ccccc5)nc4cc3OC)O2)C1)C(=O)NS(=O)(=O)C1CC1 [Example 6, (3R,5S,8S,15S)-8-cyclohexyl-N-((1R,2S)-1-{[(cyclopropylsulfonyl)amino]carbonyl}-2-vinylcyclopropyl)-21-methoxy-7,10-dioxo-25-phenyl-2-oxa-6,9,11,24-tetraazapentacyclo [18.6.2.1^3,6.1^11,15.0^23,27] triaconta-1(27),20,22,23,25,27-hexaene-5-carboxamide]",24 nM
7,"C=C[C@@H]1C[C@]1(NC(=O)[C@@H]1C[C@@H]2CN1C(=O)[C@H](C1CCCCC1)NC(=O)N1CCC[C@H](C1)OCCCc1cc3c(cc(-c4ccccc4)nc3cc1OC)O2)C(=O)NS(=O)(=O)C1CC1 [Example 8, (3R,5S,8S,15R)-8-cyclohexyl-N-((1R,2S)-1-{[(cyclopropylsulfonyl)amino]carbonyl}-2-vinylcyclopropyl)-21-methoxy-7,10-dioxo-25-phenyl-2,16-dioxa-6,9,11,24-tetraazapentacyclo [18.6.2.1^3,6.1^11,15.0^23,27] triaconta-1(27),20,22,23,25,27-hexaene-5-carboxamide]",5 nM
8,"C=C[C@@H]1C[C@]1(NC(=O)[C@@H]1C[C@@H]2CN1C(=O)[C@H](C1CCCCC1)NC(=O)N1CCC[C@@H](C1)OCCCc1cc3c(cc(-c4ccccc4)nc3cc1OC)O2)C(=O)NS(=O)(=O)C1CC1 [Example 9, (3R,5S,8S,15S)-8-cyclohexyl-N-((1R,2S)-1-{[(cyclopropylsulfonyl)amino]carbonyl}-2-vinylcyclopropyl)-21-methoxy-7,10-dioxo-25-phenyl-2,16-dioxa-6,9,11,24-tetraazapentacyclo [18.6.2.1^3,6.1^11,15.0^23,27] triaconta-1(27),20,22,23,25,27-hexaene-5-carboxamide]",7 nM
9,"C=C[C@@H]1C[C@]1(NC(=O)[C@@H]1C[C@@H]2CN1C(=O)[C@H](C1CCCCC1)NC(=O)N1CCC[C@@H](C1)OCCCc1cc3c(nccc3cc1OC)O2)C(=O)NS(=O)(=O)C1CC1 [Example 10, (3R,5S,8S,15S)-8-cyclohexyl-N-((1R,2S)-1-{[(cyclopropylsulfonyl)amino]carbonyl}-2-vinylcyclopropyl)-21-methoxy-7,10-dioxo-2,16-dioxa-6,9,11,26-tetraazapentacyclo [18.6.2.1^3,6.1^11,15.0^23,27] triaconta-1(26),20,22,24,27-pentaene-5-carboxamide]",7 nM

# Same assay, conditions: Hepatitis C virus; Huh-7 replicon cells; NS3 expression by Cell-ELISA; 96 hours; read-out: Cell-based HCV Replication Assay: IC50
row,SMILES,IC50
1,"C=C[C@@H]1C[C@]1(NC(=O)[C@@H]1C[C@@H]2CN1C(=O)[C@H](C1CCCCC1)NC(=O)N1CCC[C@@H](C1)OCCCc1cc3c(cc(OCC)nc3cc1OC)O2)C(=O)NS(=O)(=O)C1CC1 [Example 1, (3R,5S,8S,15S)-8-Cyclohexyl-N-((1R,2S)-1-{[(cyclopropylsulfonyl)amino]carbonyl}-2-vinylcyclopropyl)-25-ethoxy-21-methoxy-7,10-dioxo-2,16-dioxa-6,9,11,24-tetraazapentacyclo[18.6.2.1^3,6.1^11,15.0^23,27]triaconta-1(27),20,22,23,25,27-hexaene-5-carboxamide]",4 nM
